Entries after “also recorded” stand apart in the source; their conditions may differ.
Key:
aged rats = experiment: Von Frey testing of tactile sensitivity, aged rats; type: in vivo, rat
Experimental: Von Frey testing: Forty-eight hours after metabolism studies, tactile sensitivity was measured (once per week for the duration of the study) using von Frey nylon filaments applied to the suprapubic and plantar hindpaw (Stoelting Co., Wood Dale, Ill., USA). The median 50% withdrawal threshold (using up-down method) with positive responses are recorded as sharp retraction, licking/scratching, or vocalization.
Von Frey testing: Forty-eight h after the metabolism studies, tactile sensitivity was measured once per week using von Frey nylon filaments (Stoelting Co., Wood Dale, Ill., USA) applied to the suprapublic and plantar hindpaw. The median 50% withdrawal threshold (using an up-down method) with positive responses was recorded as sharp retraction, licking/scratching, or vocalization.
Von Frey Testing: Forty-eight hr after the metabolic cage studies, tactile sensitivity was measured once per week for the duration of the study using von Frey nylon filaments (Stoelting Co., Wood Dale, Ill., USA) applied to the suprapublic and plantar hindpaw. The withdrawal threshold (using up-down method) was determined, with positive responses defined as sharp retractions, licking/scratching, or vocalizations.

AVP receptor V2 = experiment: Western immunoblotting, kidney V2 vasopressin receptor; type: in vivo, rat; settings: aged Fisher 344 rats; 8-AG 5 mg kg/day via drinking water, 1 month
Experimental: Western immunoblotting and transmission electron microscopy: Following these testing paradigms, rats were deeply anesthetized, bladders were removed, and one half of each bladder (using the smooth muscle layer) was homogenized using Lysing Matrix D in a FASTPREP-24™ instrument (MP BIOMEDICALS™, Solon, Ohio) in HBSS (5 mM KCl, 0.3 mM KH2PO4, 138 mM NaCl, 4 mM NaHO3, 0.3 mM Na2HCO3, 0.3 mM Na2HPO4, 5.6 mM glucose and 10 mM Hepes, pH 7.4) containing complete protease inhibitor cocktail (1 tablet/10 ml, ROCHE™, Indianapolis, Ind.) and phosphatase inhibitor cocktail (SIGMA®, 1:100). Whole rat kidney was also homogenized using the same procedure. After centrifugation (13000 rpm; 15 min at 4° C.), the membrane protein fraction was prepared by suspending the membrane pellets in lysis buffer containing 0.3 M NaCl, 50 mM Tris-HCl (pH 7.6), 0.5% Triton X-100, and the same concentration of protease inhibitors as above. […] The protein concentrations of the combined supernatants were determined using the PIERCE™ BCA protein assay (THERMO SCIENTIFIC™, Rockford, Ill.). […] As a loading control, total protein per sample was determined using BIO-RAD™ Stain Free SDS-PAGE gel technology. UV-activated protein fluorescence was imaged on a CHEMIDOC™ MP (BIO-RAD™). […] The volume (intensity) of each protein species was determined and normalized to total protein using Image Lab software (BIO-RAD™).

IL-1beta = experiment: RT-qPCR of bladder IL-1beta mRNA in CYP cystitis model; type: in vivo, rat; settings: CYP (75 mg/kg i.p.) female Sprague Dawley rats; oral 8-AG 5 mg/kg/day starting one week prior to CYP
Experimental: (§1) Animals: Female Sprague Dawley rats were employed in this example (Charles River; Wilmington, Mass.). Three groups of animals were included. Group 1 received an i.p. injection of saline and was used as a control; groups 2 and 3 received an i.p. injection of cyclophosphamide (CYP, SIGMA-ALDRICH®, St Louis, Mo., day 0, 3, 6, sacrifice day 8, 75 mg/kg, i.p.) with group 3 treated with oral 8-AG (5 mg/kg/day; starting one week prior to CYP). CYP induced bladder inflammation and is a well-established pre-clinical model for BPS/IC.
(§2) RT-qPCR: Total RNA was isolated from bladders using TRIZOL® Reagent (THERMO FISHER SCIENTIFIC®; Waltham, Mass.) according to the manufacturer's instructions. The cDNA was synthesized using ISCRIPT™ cDNA synthesis kit (BIO-RAD®). qPCR analysis was performed using Power SYBR™ Green PCR Master Mix (THERMO FISHER SCIENTIFIC®) in the APPLIED BIOSYSTEMS® QUANTSTUDIO™ 3 Real-Time PCR System (THERMO FISHER SCIENTIFIC®). The primers used were as follows: for IL-1beta, 5′-[…]-3′ (forward; SEQ ID NO: 1) and 5′-[…]-3′ (reverse; SEQ ID NO: 2); for MCP-1, 5′-[…]-3′ (forward; SEQ ID NO: 3) and 5′-[…]-3′ (reverse; SEQ ID NO: 4); for β-actin, 5′-ACTCTTCCAGCCTTCCTTC-3′ (forward; SEQ ID NO: 5) and 5′-[…]-3′ (reverse; SEQ ID NO: 6). The threshold cycle (Ct) for target was subtracted from Ct for β-actin to give ΔCt. Results are expressed as 2AC.

MCP-1 = experiment: RT-qPCR of bladder MCP-1 mRNA in CYP cystitis model; type: in vivo, rat; settings: CYP (75 mg/kg i.p.) female Sprague Dawley rats; oral 8-AG 5 mg/kg/day starting one week prior to CYP
Experimental: as §1, §2

[1] = Jackson et al., J Pharmacol Exp Ther 2016; cited from earlier work
[2] = aged Fischer 344 rats, oral 8-AG 5 mg/kg/day, 6 weeks
[3] = aged Fisher 344 rats, 8-AG 5 mg kg/day via drinking water, 1 month
[4] = aged rats, intravesical 100 μM 8-AG plus 10 μM DEA-NONOate, daily infusion 3-6 weeks

## Nc1nc2[nH]c(N)nc2c(=O)[nH]1 [8-AG, 8-Aminoguanine]
Aged rats; [2]
  abdominal response to tactile mechanical stimuli: restored to a younger state
  somatic response to tactile mechanical stimuli: restored to a younger state
Aged rats; [3]
  abdominal tactile mechanical sensitivity: restored to a younger state; also recorded: reversed
  somatic tactile mechanical sensitivity: restored to a younger state; also recorded: reversed
Aged rats; [4]
  abdominal tactile mechanical sensitivity: increase in sensitivity; also recorded: improves
  somatic tactile mechanical sensitivity: increase in sensitivity; also recorded: improves
AVP receptor V2
  V2 vasopressin receptor in kidney: restored to a younger state; also recorded: restored to levels similar to the younger state
IL-1beta
  IL-1beta mRNA expression in bladder: suppressed; also recorded: near the detection limit; also recorded: nearly abolished
MCP-1
  MCP-1 mRNA expression in bladder: suppressed; also recorded: near the detection limit; also recorded: nearly abolished
[1]
  diuresis: induce
  glucosuria: induce
  natriuresis: induce
  potassium excretion: reduce

Reference: US20220054494A1, “METHODS FOR TREATING BLADDER AND URETHRA DYSFUNCTION AND DISEASE” (University of Pittsburgh - Of the Commonwealth System of …, priority 2019, published 2022)
